Here are results for three compounds from US8033977B2, “Methods of enhancing radiation effects with metal nanoparticles” (NanoProbes, Inc., priority 1998, dated 2011).

The test system of one data set is cellular DNA. To be noted: after incorporation into cellular DNA in vitro; 22-45% of thymine substituted; cited from earlier work.
A further data set deals with test animal tumor models. The settings on record: co-administered with PALA, tetrahydrouridine and 5-fluoro-2′deoxyctidine, fractionated x-ray treatments; cited from earlier work.
Another data set relates to CD1 mice. As to the kind of experiment: In vivo tolerance of tungsten heteropolyanions in mice. The settings on record: injected into CD1 mice. As to the method: A column containing carboxymethyl cellulose medium was prepared and charged with tetramethylammonium acetate, then rinsed with deionized water. Silicotungstic acid (H4SiW12O40.30H2O, 10 mg/ml in water) was injected onto the column and ion exchanged to produce the cluster surrounded and charge-shielded by quaternary ammonium ions.
A complex between the quaternary cation, tetramethylammonium was also formed by mixing equimolar amounts of H4SiW12O40.30H2O, 10 mg/ml in water and tetramethylammonium bromide, 100 mg/ml in water. Some white precipitate was formed that was removed by centrifugation at 13 k×g for 10 minutes, then filtering through a molecular filter, Amicon Centricon 30, that only passes molecules less than 30,000 Daltons. […] Dilutions were prepared and injected into CD1 mice. Good tolerance and normal weight gain was found at blood concentrations of approximately 5 mg/ml, whereas the uncomplexed heteropoltungstate was lethal at 1 mg/ml.

Consider `O=c1[nH]c(=O)n([C@H]2C[C@H](O)[C@@H](CO)O2)cc1I` [iododeoxyuridine], for which the “radiotherapeutic advantage (factor)” value in the data set on cellular DNA was “about 3”. In the case of `Nc1nc(=O)n([C@H]2C[C@H](O)[C@@H](CO)O2)cc1Cl` [5-chloro-2′-deoxycytidine], the dose enhancement result in the data set on test animal tumor models is “threefold”. As for “Silicotungstic acid [uncomplexed heteropoltungstate]”, the lethal blood concentration in the data set with CD1 mice was found to be 1 mg/mL.
